Data on 13 molecules can be found in patent US6897036B2, “Fluorescent detection of peroxidase enzymes” (Lumigen, Inc., priority 2002, dated 2005).

What all share (type): biochemical, horseradish
Test [1] addresses T1, HRP (Armoracia rusticana, UniProt P00433).
T1 sequence (P00433 31-338): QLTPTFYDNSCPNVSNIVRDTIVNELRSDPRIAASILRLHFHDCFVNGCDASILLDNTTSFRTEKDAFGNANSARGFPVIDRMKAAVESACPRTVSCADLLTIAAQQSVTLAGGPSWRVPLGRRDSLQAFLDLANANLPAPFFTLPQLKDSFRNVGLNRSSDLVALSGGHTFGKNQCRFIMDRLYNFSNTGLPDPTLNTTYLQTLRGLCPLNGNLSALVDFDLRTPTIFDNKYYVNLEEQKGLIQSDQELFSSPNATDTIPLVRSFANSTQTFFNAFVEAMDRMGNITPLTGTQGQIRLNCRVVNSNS
Put plainly: Evaluation of substrates: fluorescence spectra of the product formed by reaction with HRP. The note with it: 0.05 mM substrate, HRP 13.8 fmol. As to the method: Enhanced reagent formulations containing each of Compounds 1-13 were prepared in either the Basic Formulation or the Acidic Formulation described below.
Fluorescence spectra were obtained on a Jobin Yvon/SPEX FluoroMax-3 spectrofluorometer with the excitation and emission slits set at 1.0 nm bandpass. UV Fluorimeter cuvettes (3.5 mL capacity, Perfector Scientific) were used.
Each of Compounds 1-13 was tested for production of a fluorescent product by reaction with HRP followed by spectrofluorometric analysis. A representative procedure using Compound 1 is described below. Essentially the same procedure was used for the other compounds.
Three mL of a 0.05 mM solution of ethyl N-methylacridan 9-carboxylate (Compound 1) in the acidic formulation were pipetted into a cuvette. Excitation (λem=524 nm) and emission (λex=[…]) spectra were recorded. HRP (13.8 fmol, 4.6×10^−12M) was added and mixed thoroughly. The increase in fluorescence at 524 nm was recorded over 15 min. Excitation (λem=524 nm) and emission (λex=357 nm) spectra were recorded again.

Test [2] concerns the target T1, HRP. Nature of the test: Fluorescence signal/background measurements in the presence of HRP. The note with it: HRP 13.8 fmol, t=15 min vs t=0. As to the method: Three mL of a solution of each substrate in either the acidic or basic formulation described in Example 12 were pipetted into a cuvette. HRP (13.8 fmol, 4.6×10^−12M) was added and mixed thoroughly. The increase in fluorescence at the maximum was recorded after 15 min for each substrate. Signal-background values were calculated by comparing the fluorescence intensities at t=0 minutes and t=15 minutes.

For test [3], the target named is T1, HRP. Put plainly: Fluorescent detection sensitivity of HRP (microtiter plate fluorometer, FIG. 3). The note with it: 0.05 mM substrate in acidic formulation. As to the method: FIG. 3 is a graph showing the linearity of detection of HRP using fluorogenic substrates performed according to the methods of the present invention. Solutions containing 0.05 mM substrate 1 or 4, 0.1 mM 4-phenylphenol, 0.5 mM urea peroxide, 1 mM EDTA, 0.025% TWEEN 20 in 10 mM acetate buffer, pH 5 and a solution of 0.05 mM substrate 2, 0.1 mM 4-phenylphenol, 0.5 mM urea peroxide, 1 mM EDTA, 0.025% TWEEN 20 in 10 mM in 10 mM tris, pH 8 were reacted with the indicated quantities of HRP. After a reaction period of 15-20 min, fluorescence intensity was measured at the maximum. The term Intensity-Background refers to the fluorescence intensity in relative light units in the presence of HRP corrected for background fluorescence (B) in the absence of HRP. […]
Fluorescence detection limits were obtained on a Labsystems Fluoroskan Ascent microtiter plate fluorometer using an excitation bandpass filter (380 nm) and an emission bandpass filter (465 or 530 nm). […] The strips were then read on the Fluoroskan Ascent with the 380 nm-530 nm filter set.
(§1) HRP was serially diluted in type 1 water and 10 μl of diluted HRP was pipetted into each well. […] The strips were then read on the Fluoroskan Ascent with the 380 nm-465 nm filter set.
as §1

The target in test [4] is T1, HRP. Put plainly: Sequential fluorescence spectra and kinetics of fluorescent product formation with HRP. The source says: FIG. 1 is a graph showing a series of sequential fluorescence spectra obtained from a reaction solution containing Compound 10 and HRP. The spectra correspond to the fluorescence of the acridinium product. For comparison, the fluorescence spectrum of an independently prepared sample of N-methylacridinium triflate is shown.
FIG. 2 is a graph showing the time course of the generation of fluorescent product from the reaction described in FIG. 1. The product is monitored by excitation at 357 nm and detecting fluorescence emission at 495 nm.
FIG. 4 is a graph showing the a series of sequential fluorescence spectra obtained from a reaction solution containing compound 12 and HRP. The spectra reveal the formation of the acridinium ester intermediate and N-methylacridone product.
Three mL of a 0.05 mM solution of N-methylacridan in the acidic formulation were pipetted into a cuvette. HRP (13.8 fmol, 4.6×10^−12M) was added and mixed thoroughly. Emission spectra (excitation at 357 nm) were obtained at 4.5 minute intervals over 1.8 h. The emission spectrum (excitation at 357 nm) of a 0.05 mM solution of N-methyl acridinium triflate in the acidic formulation is also shown for comparison with the emission spectra from the N-methylacridan/HRP solution.
FIG. 2 depicts the fluorescence intensity at 495 nm (with excitation at 357 nm) from the reaction solution of Example 16 as a function of time. Fluorescence intensity reached a maximum in 2 h and remained constant.
Three mL of a reagent containing 0.3 mM 2′,3′,6′-trifluorophenyl 10-methylacridan-9-carboxylate (compound 12), 0.1 mM 4-phenylphenol, 0.5 mM urea peroxide, 1 mM EDTA, and 0.025% TWEEN 20 in 0.01 M tris buffer, pH 8.0 were pipetted into a cuvette. HRP (13.8 fmol, 4.6×10^−12M) was added and mixed thoroughly. Emission spectra (excitation at 357 nm) were obtained at 4.5 minute intervals over 1.8 h.

The target in test [5] is T1, HRP. Put plainly: Fluorescent detection of HRP by acridinium ester end product formation. The note with it: for Fluorescence wavelength of the acridinium end product: reaction with HRP, tris pH 8.0. As to the method: Forty μL of a detection reagent consisting of 0.05 mM compound 14, 0.6 mM urea peroxide, 0.1 mM p-phenylphenol, 0.025% TWEEN 20, 1 mM EDTA in 0.01 M tris buffer, pH 8.0 was reacted with 1 μL of HRP (1.4×10^−16 mol) at room temperature. Acridinium ester end product formation was detected after 5 min and continued to increase over 1 h as detected by spectrophotometry and fluorescence at 500 nm. [drawing 12]

The mark [6] stands for this setting: 0.05 mM substrate, tris pH 8.0, HRP 1.4×10^−16 mol, room temperature.

As for `CN1c2ccccc2C(C(=O)O)c2ccccc21` [Compound 9], on HRP [1] (pH 8 basic formulation), the “Fluorescent properties of acridan substrates (fluorescence emission maximum after reaction with HRP)” value (from here on “Fluorescent properties”) was 489 nm. Besides, on HRP [2] (pH 8 basic formulation), the “Fluorescent intensity in the presence of HRP (as S/B)” value (from here on “Fluorescent intensity in the presence”) turned out to be 4.3.
With `c1ccc(N2c3ccccc3C(C3c4ccccc4N(c4ccccc4)c4ccccc43)c3ccccc32)cc1` [Compound 11], the “Fluorescent properties” value at HRP [1] (pH 5 acidic formulation) and at HRP [1] (pH 8 basic formulation) was 494 nm throughout. The “Fluorescent intensity in the presence” value on HRP [2] (pH 5 acidic formulation) is recorded as 84.0; at HRP [2] (pH 8 basic formulation), 6.1.
For `c1ccc(CN2c3ccccc3Cc3ccccc32)cc1` [Compound 5, N-benzylacridan], the “Fluorescent properties” value on HRP [1] (pH 5 acidic formulation) and at HRP [1] (pH 8 basic formulation) was 494 nm in each case. In addition, the “Fluorescent intensity in the presence” value at HRP [2] (pH 5 acidic formulation) came out at 5.6.
For `Fc1ccc(N2c3ccccc3Cc3ccccc32)cc1` [Compound 4, N-(4-fluorophenyl)acridan], the “Fluorescent properties” value at HRP [1] (pH 5 acidic formulation) is 497 nm; on HRP [1] (pH 8 basic formulation) it was 496 nm. In addition, the “Fluorescent intensity in the presence” value at HRP [2] (pH 5 acidic formulation) worked out at 3.9. Also, the “Fluorescent detection sensitivity of HRP (in words)” value on HRP [3] was “excellent sensitivity”.
`CN1c2ccccc2Cc2ccccc21` [Compound 10, N-methylacridan]: the “Fluorescent properties” value on HRP [1] (pH 8 basic formulation) turned out to be 490 nm. The “Time at which fluorescence intensity reached a maximum” value at HRP [4] (0.05 mM in acidic formulation, HRP 13.8 fmol, emission 495 nm, excitation 357 nm) was 2 h. In addition, at HRP [4] (0.05 mM in acidic formulation, HRP 13.8 fmol, excitation 357 nm, compared with N-methyl acridinium triflate), the “Product of the HRP reaction identified from emission spectra (in words)” value is listed as “enzymatic conversion of Compound 10 to the fluorescent acridinium compound”.
On to `COc1ccc2c(c1)N(C)c1c(C)ccc(OC)c1C2C(=O)Oc1c(F)ccc(F)c1F` (stereo not shown) [Compound 15, 2,3,6-trifluoro-phenyl 1,6-dimethoxy-4,10-dimethylacridan-9-carboxylate], for which the “Result of the reaction with HRP (in words)” value at HRP [5] (experiment similar to that with compound 14) was “fluorescent acridinium end product formation”. Besides, on HRP [5], the “Fluorescence wavelength of the acridinium end product” value was 500 nm.
Turning to `COc1ccc(C2c3ccccc3N(C)c3ccccc32)cc1` [Compound 3], the “Fluorescent properties” value at HRP [1] (pH 5 acidic formulation) and at HRP [1] (pH 8 basic formulation) was 484 nm throughout. Further, at HRP [2] (pH 5 acidic formulation), the “Fluorescent intensity in the presence” value turned out to be 1.4.
As for `CC1c2ccccc2N(C)c2ccccc21` [Compound 7], the “Fluorescent properties” value at HRP [1] (pH 5 acidic formulation) came out at 490 nm; at HRP [1] (pH 8 basic formulation) it was 488 nm. At HRP [2] (pH 5 acidic formulation), the “Fluorescent intensity in the presence” value was 15.8.
Turning to `CCOC(=O)C1c2ccccc2N(C)c2ccccc21` [Compound 1, ethyl N-methylacridan 9-carboxylate], the “Fluorescent properties” value at HRP [1] (pH 5 acidic formulation) and on HRP [1] (pH 8 basic formulation) was 524 nm throughout. In addition, the “Fluorescent intensity in the presence” value at HRP [2] (pH 5 acidic formulation) was 29.5; at HRP [2] (pH 8 basic formulation), 11.0. In addition, the “Fluorescent detection sensitivity of HRP (in words)” value at HRP [3] is listed as “excellent sensitivity”.
`COc1ccc2c(c1)N(C)c1cccc(OC)c1C2C(=O)Oc1c(F)ccc(F)c1F` (stereo not shown) [Compound 14]: at HRP [5] (setting [6]), the “Period over which end product formation continued to increase” value is given as 1 h and the “Time after which acridinium ester end product formation was detected” value is listed as 5 min. Besides, the “Fluorescence wavelength of the acridinium end product” value at HRP [5] is given as 500 nm.
For the molecule `COc1ccc2c(c1)N(c1ccccc1)c1ccccc1C2` [Compound 6], the “Fluorescent properties” value at HRP [1] (pH 5 acidic formulation) turned out to be 512 nm; at HRP [1] (pH 8 basic formulation), 511 nm. Further, at HRP [2] (pH 5 acidic formulation), the “Fluorescent intensity in the presence” value amounted to 3.6.
Take `CN1c2ccccc2C(C(=O)Oc2c(F)ccc(F)c2F)c2ccccc21` [Compound 12, 2′,3′,6′-trifluorophenyl 10-methylacridan-9-carboxylate, reference compound]: the “Progression of the HRP reaction from emission spectra (in words)” value on HRP [4] (0.3 mM substrate, tris buffer pH 8.0, HRP 13.8 fmol, spectra every 4.5 min over 1.8 h) is “grow in of acridinium fluorescence and gradual predominance of N-methylacridone fluorescence”.
On to `O=C(O)C1c2ccccc2N(Cc2ccccc2)c2ccccc21` [Compound 8, N-benzyl-acridan-9-carboxylic acid], for which the “Fluorescent properties” value at HRP [1] (pH 8 basic formulation) came to 493 nm.
